Source: US8952024B2, “Herbicidal pyrimidone derivatives” (E I du Pont de Nemours and Company, priority 2009, dated 2015)

Assays:
Test in all cases: Test B pre-/postemergence plant response
Type in all cases: in vivo
[1] = system: pigweed (Amaranthus retroflexus)
Summary of the method: (§1)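 Each species received compound formulated in non-phytotoxic solvent with surfactant, either at planting into a loam and sand blend or as a foliar spray once plants reached 2 to 18 cm in peat-based medium. Plants stayed in the greenhouse 13 to 15 days before visual evaluation against controls, scored 0 (no effect) to 100 (complete control).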

[2] = system: lambsquarters (Chenopodium album)
Summary of the method: as §1

[3] = system: Surinam grass (Brachiaria decumbens)
Summary of the method: as §1

[4] = system: goosegrass (Eleusine indica)
Summary of the method: as §1

[5] = system: morningglory (Ipomoea coccinea)
Summary of the method: as §1

[6] = system: blackgrass (Alopecurus myosuroides)
Summary of the method: as §1

[7] = system: green foxtail (Setaria viridis)
Summary of the method: as §1

[8] = system: yellow nutsedge (Cyperus esculentus)
Summary of the method: as §1

soybean (Glycine max) = system: soybean (Glycine max)
Summary of the method: as §1

corn (Zea mays) = system: corn (Zea mays)
Summary of the method: as §1

[9] = system: downy bromegrass (Bromus tectorum)
Summary of the method: as §1

[10] = system: velvetleaf (Abutilon theophrasti)
Summary of the method: as §1

kochia (Kochia scoparia) = conditions: Postemergence
Summary of the method: as §1

[11] = system: johnsongrass (Sorghum halepense)
Summary of the method: as §1

wild oat (Avena fatua) = system: wild oat (Avena fatua)
Summary of the method: as §1

[12] = system: large crabgrass (Digitaria sanguinalis)
Summary of the method: as §1

[13] = system: woolly cupgrass (Eriochloa villosa)
Summary of the method: as §1

[14] = Postemergence, 31 g ai/ha, 0 to 100 scale (0 no effect, 100 complete control)
[15] = Postemergence, 250 g ai/ha, scale 0 to 100 (0 no effect, 100 complete control), 13 to 15 days
[16] = Postemergence, 62 g ai/ha, scale 0 to 100 (0 no effect, 100 complete control)
[17] = Preemergence, 31 g ai/ha, scale 0 to 100 (0 no effect, 100 complete control)
[18] = Preemergence, 62 g ai/ha, scale 0 to 100, 0 no effect, 100 complete control
[19] = Preemergence, 125 g ai/ha, scale 0 to 100, 0 no effect, 100 complete control
[20] = Preemergence, 250 g ai/ha, 0 to 100 scale
[21] = Postemergence, 125 g ai/ha, scale 0 to 100 (0 no effect, 100 complete control)

In the case of `CCc1cccc(-n2c(-c3ccccc3)ncc(C(=O)C3=C(O)CCCC3=O)c2=O)c1` [Compound 220], the “Plant response rating, Pigweed” value [1, 14] is reported as 95, the “Plant response rating, Pigweed” value [1, 15] is reported as 100 and the “Plant response rating, Pigweed” value [1, 16] is reported as 100. For the same compound, the “Plant response rating, Pigweed” value [1, 17] was 100, the “Plant response rating, Pigweed” value [1, 18] was 100 and the “Plant response rating, Pigweed” value [1, 19] was 100. The “Pigweed plant response rating” value [1, 20] was 100, the “Plant response rating, Lambsquarters” value [2, 14] was 100 and the “Plant response rating, Lambsquarters” value [2, 21] was 100. The “Plant response rating, Lambsquarters” value [2, 15] was 100, the “Plant response rating, Lambsquarters” value [2, 16] was 100 and the “Plant response rating, Lambsquarters” value [2, 17] was 100. The “Plant response rating, Lambsquarters” value [2, 18] was 100, the “Plant response rating, Lambsquarters” value [2, 19] was 100 and the “Lambsquarters plant response rating” value [2, 20] was 100. The “Plant response rating, Surinam Grass” value [3, 14] was 50, the “Plant response rating, Surinam Grass” value [3, 15] was 75 and the “Plant response rating, Surinam Grass” value [3, 16] was 60. The “Plant response rating, Surinam Grass” value [3, 17] was 10, the “Plant response rating, Surinam Grass” value [3, 18] was 20 and the “Plant response rating, Surinam Grass” value [3, 19] was 45. The “Surinam Grass plant response rating” value [3, 20] was 65, the “Plant response rating, Goosegrass” value [4, 14] was 80 and the “Plant response rating, Goosegrass” value [4, 21] was 85. The “Plant response rating, Goosegrass” value [4, 15] was 90, the “Plant response rating, Goosegrass” value [4, 16] was 85 and the “Plant response rating, Goosegrass” value [4, 17] was 65. The “Plant response rating, Goosegrass” value [4, 18] was 95, the “Plant response rating, Goosegrass” value [4, 19] was 98 and the “Goosegrass plant response rating” value [4, 20] was 100. For the same compound, the “Plant response rating, Morningglory” value [5, 14] was 65, the “Plant response rating, Morningglory” value [5, 21] was 98 and the “Plant response rating, Morningglory” value [5, 15] was 100. For the same compound, the “Plant response rating, Morningglory” value [5, 16] was 65, the “Plant response rating, Morningglory” value [5, 17] was 0 and the “Plant response rating, Morningglory” value [5, 18] was 0. The “Plant response rating, Morningglory” value [5, 19] was 0, the “Morningglory plant response rating” value [5, 20] was 90 and the “Plant response rating, Blackgrass” value [6, 14] was 10. For the same compound, the “Plant response rating, Blackgrass” value [6, 21] was 30, the “Plant response rating, Blackgrass” value [6, 15] was 40 and the “Plant response rating, Blackgrass” value [6, 16] was 20. The “Plant response rating, Blackgrass” value [6, 17] was 10, the “Plant response rating, Blackgrass” value [6, 18] was 20 and the “Plant response rating, Blackgrass” value [6, 19] was 20. The “Blackgrass plant response rating” value [6, 20] was 35, the “Plant response rating, Foxtail, Green” value [7, 14] was 60 and the “Plant response rating, Foxtail, Green” value [7, 21] was 80. For the same compound, the “Plant response rating, Foxtail, Green” value [7, 15] was 90, the “Plant response rating, Foxtail, Green” value [7, 16] was 65 and the “Plant response rating, Foxtail, Green” value [7, 17] was 80. For the same compound, the “Plant response rating, Foxtail, Green” value [7, 18] was 90, the “Foxtail, Green plant response rating” value [7, 20] was 100 and the “Plant response rating, Nutsedge, Yellow” value [8, 14] was 10. For the same compound, the “Plant response rating, Nutsedge, Yellow” value [8, 21] was 25, the “Plant response rating, Nutsedge, Yellow” value [8, 15] was 55 and the “Plant response rating, Nutsedge, Yellow” value [8, 16] was 25. For the same compound, the “Plant response rating, Nutsedge, Yellow” value [8, 17] was 0, the “Plant response rating, Nutsedge, Yellow” value [8, 18] was 0 and the “Plant response rating, Nutsedge, Yellow” value [8, 19] was 60. For the same compound, the “Nutsedge, Yellow plant response rating” value [8, 20] was 90, the “Plant response rating, Soybean” value (soybean (Glycine max); [14]) was 80 and the “Plant response rating, Soybean” value (soybean (Glycine max); [15]) was 100. For the same compound, the “Plant response rating, Soybean” value (soybean (Glycine max); [16]) was 85, the “Plant response rating, Soybean” value (soybean (Glycine max); [18]) was 0 and the “Plant response rating, Soybean” value (soybean (Glycine max); [19]) was 0. The “Soybean plant response rating” value (soybean (Glycine max); [20]) was 75, the “Plant response rating, Corn” value (corn (Zea mays); [14]) was 25 and the “Plant response rating, Corn” value (corn (Zea mays); [21]) was 55. For the same compound, the “Plant response rating, Corn” value (corn (Zea mays); [15]) was 75, the “Plant response rating, Corn” value (corn (Zea mays); [16]) was 50 and the “Plant response rating, Corn” value (corn (Zea mays); [17]) was 0. The “Plant response rating, Corn” value (corn (Zea mays); [18]) was 0, the “Plant response rating, Corn” value (corn (Zea mays); [19]) was 0 and the “Corn plant response rating” value (corn (Zea mays); [20]) was 0. For the same compound, the “Plant response rating, Bromegrass, Downy” value [9, 14] was 10, the “Plant response rating, Bromegrass, Downy” value [9, 21] was 15 and the “Plant response rating, Bromegrass, Downy” value [9, 15] was 30. The “Plant response rating, Bromegrass, Downy” value [9, 16] was 10, the “Plant response rating, Bromegrass, Downy” value [9, 17] was 0 and the “Plant response rating, Bromegrass, Downy” value [9, 18] was 0. The “Plant response rating, Bromegrass, Downy” value [9, 19] was 0, the “Bromegrass, Downy plant response rating” value [9, 20] was 5 and the “Plant response rating, Velvetleaf” value [10, 14] was 80. For the same compound, the “Plant response rating, Velvetleaf” value [10, 15] was 100, the “Plant response rating, Velvetleaf” value [10, 16] was 90 and the “Plant response rating, Velvetleaf” value [10, 17] was 45. The “Plant response rating, Velvetleaf” value [10, 18] was 70, the “Plant response rating, Velvetleaf” value [10, 19] was 90 and the “Velvetleaf plant response rating” value [10, 20] was 100. The “Plant response rating, Kochia” value (kochia (Kochia scoparia); 31 g ai/ha, 0 to 100 scale (0 no effect, 100 complete control)) was 45, the “Plant response rating, Kochia” value (kochia (Kochia scoparia); 125 g ai/ha, scale 0 to 100 (0 no effect, 100 complete control)) was 75 and the “Plant response rating, Kochia” value (kochia (Kochia scoparia); 250 g ai/ha, scale 0 to 100 (0 no effect, 100 complete control), 13 to 15 days) was 100. The “Plant response rating, Kochia” value (kochia (Kochia scoparia); 62 g ai/ha, scale 0 to 100 (0 no effect, 100 complete control)) was 65, the “Plant response rating, Johnsongrass” value [11, 14] was 60 and the “Plant response rating, Johnsongrass” value [11, 21] was 80. The “Plant response rating, Johnsongrass” value [11, 15] was 90, the “Plant response rating, Johnsongrass” value [11, 16] was 65 and the “Plant response rating, Johnsongrass” value [11, 17] was 0. The “Plant response rating, Johnsongrass” value [11, 18] was 0, the “Plant response rating, Johnsongrass” value [11, 19] was 0 and the “Johnsongrass plant response rating” value [11, 20] was 80. The “Plant response rating, Oat, Wild” value (wild oat (Avena fatua); [14]) was 10, the “Plant response rating, Oat, Wild” value (wild oat (Avena fatua); [15]) was 50 and the “Plant response rating, Oat, Wild” value (wild oat (Avena fatua); [16]) was 20. For the same compound, the “Plant response rating, Oat, Wild” value (wild oat (Avena fatua); [18]) was 0, the “Plant response rating, Oat, Wild” value (wild oat (Avena fatua); [19]) was 0 and the “Oat, Wild plant response rating” value (wild oat (Avena fatua); [20]) was 60. For the same compound, the “Plant response rating, Crabgrass, Large” value [12, 14] was 70, the “Plant response rating, Crabgrass, Large” value [12, 21] was 85 and the “Plant response rating, Crabgrass, Large” value [12, 15] was 90. For the same compound, the “Plant response rating, Crabgrass, Large” value [12, 16] was 75, the “Plant response rating, Crabgrass, Large” value [12, 17] was 0 and the “Plant response rating, Crabgrass, Large” value [12, 18] was 75. The “Plant response rating, Crabgrass, Large” value [12, 19] was 80, the “Crabgrass, Large plant response rating” value [12, 20] was 100 and the “Plant response rating, Cupgrass, Woolly” value [13, 14] was 60. The “Plant response rating, Cupgrass, Woolly” value [13, 21] was 65, the “Plant response rating, Cupgrass, Woolly” value [13, 15] was 65 and the “Plant response rating, Cupgrass, Woolly” value [13, 16] was 60. For the same compound, the “Plant response rating, Cupgrass, Woolly” value [13, 17] was 0, the “Plant response rating, Cupgrass, Woolly” value [13, 18] was 0 and the “Plant response rating, Cupgrass, Woolly” value [13, 19] was 10. The “Cupgrass, Woolly plant response rating” value [13, 20] was 25.
